Data as given in patent publication US10519148B2, “Acrylic acid derivative, preparation method and use in medicine thereof” (Zhejiang Hisun Pharmaceutical Co., Ltd., priority 2015, dated 2019).

What was measured:
[1] = target: T1, recombinant human estrogen receptor ERα ligand binding domain (Homo sapiens, UniProt P03372); assay: LanthaScreen TR-FRET competition binding assay with estrogen receptor ERα ligand binding domain; conditions: TR-FRET competition with Fluormone ES2, ERα-LBD (GST); read-out: IC50 (nM) ER Reporter
T1 construct: purchased Invitrogen PV4543
T1 sequence (P03372 311-547 limits assumed): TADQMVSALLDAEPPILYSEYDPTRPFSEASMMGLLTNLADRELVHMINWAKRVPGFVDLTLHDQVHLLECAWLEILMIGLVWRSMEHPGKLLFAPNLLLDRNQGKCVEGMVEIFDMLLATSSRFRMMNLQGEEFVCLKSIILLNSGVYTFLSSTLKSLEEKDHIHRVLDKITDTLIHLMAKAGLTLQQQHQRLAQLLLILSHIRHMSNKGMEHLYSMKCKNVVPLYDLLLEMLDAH
Excerpt: The present invention utilizes the Lantha Screen™ Time-resolved Fluorescence Resonance Energy Transfer (TR-FRET) to assess the ability of the compounds to bind to the isolated ligand domain of estrogen receptor Era in competition assay. The fluorophore (Fluormone ES2, product code P2645) and the recombinant human estrogen receptor ERα ligand binding domain (product code PV4543) using in the TR-FRET were purchased from Invitrogen. The design principle of this assay is as follows: the estrogen receptor ERα-LBD (GST) and the fluorophore-containing ligand form a receptor/fluorophore complex, followed by the addition of terbium (Tb)-labeled anti-GST antibody (product code PV3551), the indirect labeling of the receptor is achieved by the linkage with the GST on the receptor, and the ability of competitive coordination between the test compound and the fluorescent ligand with the receptor is evaluated by detecting the attenuation of the TR-FRET effect between the chromophore (Tb-anti-GST antibody) on the fluorescent label ERα and the fluorescent ligand (Fluormone ES2). We used the following sample preparation and test methods for the test of the synthesized compounds. The instrument we used is Beckman Coulter BioPAPTR FRD microfluidic workstation.
(1) Acoustic dispense 120 nL of the test compound into a black low volume 384 well assay plates;
(2) Preparation of 1×ERα-LBD/Tb-anti-GST antibody complex in ES2 buffer and incubation therein for 20 minutes;
(3) The 1×ES2 was further added to the above ERα-LBD/Tb-anti-GST antibody complex solution before the test;
(4) 12 μL of the ERα-LBD/Tb-anti-GST antibody complex solution prepared in step 3 was added to the wells of the assay plate;
(5) The plates were shielded from light and incubated at room temperature for one hour; (6) At 337 nm excitation light, the emission light at 490 nm and 520 nm was detected by BMG Phera STAR.
The test compounds of a series of concentrations (10 mM, 0.1 mM, 1 μM and 10 nM) prepared on a microplate were transferred to the analytical plate using Labcyte Echo 550. 120 nL of DMSO solution for each test compound was added to each well of the assay plate and tested at 12 different concentrations (100, 29.17, 10.42, 2.083, 1, 0.292, 0.104, 0.02083, 0.01, 0.0029, 0.00104, 0.001 μM). The TR-FRET primitive fluorescence data was used to obtain the fitting curve software such as Origin or Genedata. Half maximal inhibitory concentration IC50 of each compound was used to characterize the competitive binding ability of the test compound with the estrogen receptor ERα. IC50 represents the concentration of the test compound that was calculated when the coordination of the tracer fluorophore (ES2) with the estrogen receptor was reduced by 50%, and the IC50 was determined as shown in Table 3.

ERα = target: T2, ERα (Homo sapiens, UniProt P03372); assay: ERα down-regulation immunofluorescence assay in MCF-7 cells; type: cell-based; conditions: immunofluorescence of ERα level, read-out: IC50 (nM) ERα down-degradation
T2 construct: host or cells: MCF-7
T2 sequence (P03372 1-595): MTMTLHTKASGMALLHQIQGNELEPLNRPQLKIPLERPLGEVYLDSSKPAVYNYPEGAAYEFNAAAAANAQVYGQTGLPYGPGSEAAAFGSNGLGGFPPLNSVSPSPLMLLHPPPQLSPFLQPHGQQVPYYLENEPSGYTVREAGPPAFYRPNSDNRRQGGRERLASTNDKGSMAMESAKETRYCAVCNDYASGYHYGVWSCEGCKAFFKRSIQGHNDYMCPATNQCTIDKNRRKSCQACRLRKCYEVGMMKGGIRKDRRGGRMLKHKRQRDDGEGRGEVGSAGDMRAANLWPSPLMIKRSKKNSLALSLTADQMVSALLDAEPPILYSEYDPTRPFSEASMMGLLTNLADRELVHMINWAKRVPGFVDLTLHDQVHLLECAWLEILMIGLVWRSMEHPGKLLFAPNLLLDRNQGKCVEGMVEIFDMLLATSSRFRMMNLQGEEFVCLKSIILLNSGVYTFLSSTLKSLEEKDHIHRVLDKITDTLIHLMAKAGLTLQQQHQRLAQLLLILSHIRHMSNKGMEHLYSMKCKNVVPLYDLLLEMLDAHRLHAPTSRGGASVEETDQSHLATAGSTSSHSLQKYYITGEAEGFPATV
Procedure: The down-regulation of the preferred compounds of the present invention on the protein level of ERα is evaluated by immunofluorescence assay using human breast cancer cell line MCF-7. MCF-7 cells used in the experiment were revived directly from frozen cells (about 5×10^6). The MCF-7 frozen cell line (Sigma D5921) purchased from Sigma was stored in DMEM medium containing 2 mM […]. 5% (v/v) Charcoal/Dextran-treated bovine serum […] were added to the revived MCF-7 cells and the cell concentration was determined using Coulter Counter.
The cells used for the test were diluted to 3.75×10^4 cells/mL with culture medium and 40 μL/well of the above cell suspension was transferred to 384-well black transparent bottom plates and incubated overnight at 37° C., 5% CO2. 10 mM compound stock solutions were diluted to a series of test concentrations (10 mM, 0.1 mM, 1 μM, 0.01 μM etc.) and dispensed into cell plates. 20 μL of 11.1% (v/v) aqueous formaldehyde solution (phosphate buffered saline) was added to each of the different concentrations of the test compounds and MCF-7 cell culture solution (40 μL), and the final concentration of formaldehyde in the solution was 3.7% (v/v). Cells were fixed at room temperature for 20 minutes, washed twice with 250 μL of PBS/Proclin, and then 40 μL of PBS/Proclin was added and refrigerated at 4° C. The immunostaining of the protein was performed using the automated AutoElisa kit. The PBS/Proclin solution was aspirated from each plate well and then 40 μL of PBS containing 0.5% Tween 20 (v/v) was added for cell permeation. After one hour, the plate was washed with 250 μL of PBS/0.05% Tween 20/Proclin for three times, and 20 μL of ERα rabbit monoclonal antibody (Thermofisher) in PBS/Tween™ 20/3% (w/v) BSA solution (1:1000) was added. The plates were incubated overnight at 4° C., washed three times with 250 μL of PBS/Tween™ 20/Proclin, and then 20 μL of goat anti-rabbit IgG AlexaFluor 594 or goat anti-rabbit IgG AlexaFluor 488 antibody (containing Hoechst stain (1:5000) in PBS/Tween™ 20/3% (w/v) BSA solution was added, and the system was incubated at room temperature for one hour. After the plates were washed three times with 250 μL of PBS/0.05% (v/v) Tween™ 20/Proclin, 20 μL of PBS was added and the paltes were kept in dark place at 4° C. The level of estrogen receptor ERα in MCF-7 cells was calculated through Cellomics Arrayscan detection of fluorescence emission intensity at two emission wave bands at 594 nm (24-hour time point) and 488 nm (5-hour time point). The average fluorescence emission intensity of each cell is positively correlated with the ERα receptor level of the cell. The primitive fluorescence data was used to obtain the fitting curve by software such as Origin or Genedata. Half maximal inhibitory concentration IC50 was used to characterize the down-regulation of estrogen receptor ERα by the test compounds, which is the concentration of the test compound when the fluorescence emission intensity is reduced to 50% of the average maximum fluorescence intensity.

Structure (SMILES)	IC50 [1] [nM]	DC50 (ERα) [nM]
C[C@@H]1Cc2c([nH]c3ccccc23)[C@@H](c2c(F)cc(/C=C/C(=O)O)cc2F)N1CC1CC1 [Example 2, (E)-3-(4-((1R,3R)-2-(cyclopropylmethyl)-3-methyl-2,3,4,9-tetrahydro-1H-pyrido[3,4-b]indol-1-yl)-3,5-difluorophenyl)acrylic acid]	0.1 to 10	0.1 to 10
C[C@@H]1Cc2c([nH]c3ccccc23)[C@@H](c2c(F)cc(/C=C/C(=O)O)cc2F)N1CC1CCCC1 [Example 3, (E)-3-(4-((1R,3R)-2-(cyclopentylmethyl)-3-methyl-2,3,4,9-tetrahydro-1H-pyrido[3,4-b]indol-1-yl)-3,5-difluorophenyl)acrylic acid]	10 to 250	10 to 250
C[C@@H]1Cc2c([nH]c3ccccc23)[C@@H](c2c(F)cc(/C=C/C(=O)O)cc2F)N1CC1COC1 [Example 11, (E)-3-(3,5-difluoro-4-((1R,3R)-3-methyl-2-(oxetane-3-ylmethyl)-2,3,4,9-tetrahydro-1H-pyrido[3,4-b]indol-1-yl)phenyl)acrylic acid]	10 to 250	10 to 250
C[C@@H]1Cc2c([nH]c3ccccc23)[C@@H](c2c(F)cc(/C=C/C(=O)O)cc2F)N1CC1(F)CCCCC1 [Example 6, (E)-3-(3,5-difluoro-4-((1R,3R)-2-((1-fluorocyclohexyl)methyl)-3-methyl-2,3,4,9-tetrahydro-1H-pyrido[3,4-b]indol-1-yl)phenyl)acrylic acid]	10 to 250	10 to 250
C[C@H]1Cc2c([nH]c3cccc(F)c23)[C@H](c2c(F)cc(/C=C/C(=O)O)cc2F)N1CC1(F)CC1 [Example 13, (E)-3-(3,5-difluoro-4-((1S,3S)-5-fluoro-2-((1-fluorocyclopropyl)methyl)-3-methyl-2,3,4,9-tetrahydro-1H-pyrido[3,4-b]indol-1-yl)phenyl)acrylic acid]	250 to 1000	250 to 1000
